Entries after “also recorded” stand apart in the source; their conditions may differ.
Experiments:
Assay type in all cases: cell-based, human
[1] = tested on: de novo protein synthesis; experiment: HPG Click-iT labeling of nascent proteins; details: MB135-iDUX4ca myoblasts, 20-96 hours after a pulse
Protocol: Cells were incubated for 30 minutes in DMEM or RPMI media depleted for methionine and cysteine (Gibco), followed by a 1-hour incubation in methionine-depleted media supplemented with 200 μM HPG (Sigma). Cells were fixed with 4% paraformaldehyde (Electron Microscopy Sciences) diluted in PBS for 10 minutes at room temperature and stained with Click-iT HPG Alexa Fluor 488 Protein Synthesis Assay Kit (Invitrogen) according to manufacturer's protocol.

[2] = tested on: STAT1 binding to ISG promoters (GBP1, IDO1, CXCL10); experiment: STAT1 chromatin immunoprecipitation (ChIP-qPCR) at ISG promoters; details: MB135-iDUX4-CTD cells, IFNG ± doxycycline
Protocol: Chromatin immunoprecipitation (ChIP) was performed as previously described (Nelson et al 2006) with the following modifications: Cells were plated and allowed to grow to 70-80% confluence. Pelleted nuclei were sonicated on a Diagenode Biruptor on “Low” for 10 min as 30 sec on/30 sec off, followed by 6 rounds of sonication on “High” for 10 min each as 30 sec on/30 sec off (70 minutes total sonication) in IP Buffer+0.5% SDS. For immunoprecipitation, 500 ng of chromatin was set aside per condition as an “Input” and 4 μg of antibody was added to 10 μg of chromatin in an equal volume of IP Buffer+0.5% SDS across samples. IP Buffer (150 mM NaCl, 50 mM Tris-HCl pH 7.4, 5 mM EDTA, 1% Triton X-100, 0.5% NP-40, +Roche complete mini protease inhibitor EDTA-free) was added to lower the percentage of SDS <0.1%, and tubes were incubated with rotation overnight at 4° C. During this time, protein-A agarose Fastflow beads (Millipore) were washed twice with IP Buffer and then blocked in IP Buffer containing 2% BSA by rotating overnight at 4° C. After clearing the chromatin as described, beads were aliquoted to fresh tubes and the top 90% of chromatin was transferred to the tubes containing the blocked bead slurry. Tubes were rotated for 1 hour at 4° C. […]

Pol-II = experiment: CUT&Tag of Pol-II occupancy; details: MB135-iDUX4-CTD cells, IFNG ± doxycycline
Protocol: CUT&Tag was performed as previously described (Kaya-Okur et al., 2019) with the following modifications: MB135-iDUX4-CTD myoblasts were plated and allowed to grow to 70-80% confluence. Cells were left untreated, treated with 200 ng/ml IFNG for 16 hr, or pre-treated with 1 μg/mL doxycycline for 4 hr then had IFNG added directly to cell media for an additional 16 hr. Fresh cells were harvested and washed in PBS, crosslinked with 0.1% formaldehyde for 90 seconds, then counted and 1.25e6 cells were aliquoted per reaction tube. Drosophila S2 cells were spiked-in at a genomic ratio of 1:10. Nuclei were prepared from cells in Buffer NE1 (20 mM HEPES-KOH PH7.9, 10 mM KCl, 0.1% Triton X-100, 20% glycerol, 0.5 mM spermidine, Pierce Protease Inhibitors EDTA-free [PIA32955]) on ice for 10 min and then bound to concanavalin A-coated beads for 10 min. […]
CUT&Tag data were aligned to the GRCh38 patch 13 human genome e following the Benchtop CUT&Tag v3 protocol (Kaya-Okur et al., 2019). Subsequent to alignment we calculated 1× genome coverage normalization with read centering and read extension using deepTools' bamCoverage (Ramírez, 2016) then mapped the resulting coverage tracks to regions of interest using bedtools' map function (Aaron R. Quinlan, 2010). […]

Question: Which “nascent protein synthesis by HPG labeling” value [1] does the source give for “DUX4: human DUX4 protein SEQ ID NO:3 expressed from doxycycline inducible codon altered transgene SEQ ID NO:2” here?
Answer: dramatic reduction in HPG-labeled peptides; also recorded: peak suppression occurred forty-four hours after a pulse of DUX4; also recorded: HPG signal largely recovered by ninety-two hours

Question: Which “STAT1 occupancy at ISG promoters” value [2] does the source give for “longCTD: 3×FLAG tag and nls in frame with carboxyterminal 271 amino acids of DUX4 (aa154-424), SEQ ID NOS: 8-9” here?
Answer: diminished STAT1 occupancy at all three ISGs; also recorded: moderately decreases STAT1 occupancy at ISG promoters

Question: And the “Pol-II recruitment to ISGs” value (Pol-II)?
Answer: blocked Pol-II recruitment to ISGs without affecting occupancy at other genes; also recorded: blocks Pol-II recruitment

Reference: patent US20250339531A1, “DUX4 POLYPEPTIDES AND NUCLEIC ACIDS FOR TREATING INFLAMMATORY AND AUTOIMMUNE CONDITIONS” (Fred Hutchinson Cancer Center, priority 2021, published 2025)
